Measurements: ChEMBL document CHEMBL2094260, “Malaria Box Tuberculosis Screening Data”

The compounds below were run on Mycobacterium tuberculosis (assay: MMV: Screen against Mtb, single point, replicating, at 25uM).
Assay type: functional

Compared with `CCc1ccc(CNCC(O)c2ccccc2)cc1` (configuration not stated), `CCOc1c(Cl)cc(CNCC(O)c2ccccc2)cc1OC` (configuration not stated) is lower in inhibition at 25 µM: 35.5% for the first, 11.9% for the second.

Compared with `O=C(Nc1ccc(C23CC4CC(CC(c5ccccc5)(C4)C2)C3)cc1)c1cccs1`, `Cc1sc(NC(=O)c2ccco2)c(C(c2cccnc2)N2CCC(Cc3ccccc3)CC2)c1C` (configuration not stated) is higher in inhibition at 25 µM: 9.48% for the first, 21.7% for the second.

Compared with `CN1c2ccccc2N(C)C1c1ccc2c(c1)OCO2`, `CCOc1ccc2c(c1)CN(Cc1ccc(Cl)cc1)CO2` is higher in inhibition at 25 µM: 9.63% for the first, 16.1% for the second.

Compared with `N=c1n(CCN2CCCCC2)c2ccccc2n1CC(O)c1cccc(Br)c1` (configuration not stated), `CCN(CC)CCn1c(=N)n(CC(O)c2ccc(Cl)c(Cl)c2)c2ccccc21` (configuration not stated) is higher in inhibition at 25 µM: 16.3% for the first, 36.2% for the second.

First: CCOC(=O)C1=C(c2ccccc2)N=c2sc(=Cc3cc(C)n(-c4ccc(F)cc4)c3C)c(=O)n2C1c1cccc(OC)c1OC (configuration not stated)
Second: CCOC(=O)c1c(C)n(-c2ccccc2)c2ccc(OC(=O)c3cc(OC)c(OC)c(OC)c3)cc12
The inhibition at 25 µM of the first is lower: 1.88% for the first, 22.2% for the second.

Going from `CCOc1cc2c(cc1OCC)C(c1cc(Cl)ccc1O)NCC2` (configuration not stated) to `CCOc1cc2c(cc1OCC)C(c1cc(C)c(O)c(C)c1)NCC2` (configuration not stated), the inhibition at 25 µM rises from 7.45% to 10.8%.

Compared with `COc1ccc(C2Sc3ccccc3N=C3C2=C(O)c2ccccc23)cc1` (configuration not stated), `COc1ccc2nc(C)cc(Nc3ccccc3O)c2c1` is higher in inhibition at 25 µM: 8.41% for the first, 13.6% for the second.

Going from `CC1CC2=C(CC1CNCCCN(C)C)C(C)(C)CCC2` (configuration not stated) to `CN(C)CCCNc1c2ccccc2nc2ccccc12`, the inhibition at 25 µM falls from 42.2% to 18.4%.

Going from `CCOc1cc(CNC(C)C(O)c2ccccc2)cc(Cl)c1OCC` (configuration not stated) to `CCOc1c(Cl)cc(CNC(C)C(O)c2ccccc2)cc1OC` (configuration not stated), the inhibition at 25 µM falls from 18.6% to 12.7%.

Compared with `COc1ccc(-c2nc(NC(=O)CS(=O)(=O)c3ccc(F)cc3)sc2C)cc1`, `COc1ccc(-n2ccnc2SCC(=O)Nc2cc(C)ccc2C)c(OC)c1` is lower in inhibition at 25 µM: 14.9% for the first, 2.95% for the second.

Compared with `O=C(Nc1ccsc1C(=O)NC1CCCCC1)c1ccc(F)cc1`, `Cc1ccc(F)cc1NC(=O)c1cc(Cl)ccc1Nc1ccccc1` is higher in inhibition at 25 µM: 3.4% for the first, 6.66% for the second.

Going from `CCc1ccc(Nc2cc(C)nc3nc(C)nn23)cc1` to `Cc1ccc(C)c(-c2csc(Nc3ccc(C)c(C)c3)n2)c1`, the inhibition at 25 µM rises from 11.4% to 12.5%.

First: CCCOCc1cc(CN2CCN(c3cccc(Cl)c3)CC2)c(O)c2ncccc12
Second: O=C(Nc1ccc(CN2CCOCC2)cc1)c1ccc(-c2cc(Cl)ccc2Cl)o1
The inhibition at 25 µM of the first is lower: 5.25% for the first, 17.1% for the second.

First: COc1ccc2c(=O)cc(C(Cl)(Cl)Cl)oc2c1
Second: CCOc1cc(Cl)c(C(C)NC(=O)c2cccc(OC)c2)cc1OCC (configuration not stated)
The inhibition at 25 µM of the first is higher: 25.3% for the first, 1.28% for the second.

Going from `CCOC(=O)c1cnc2c(C)cc(C)cc2c1Nc1ccc(OC)c(OC)c1` to `Cc1ccc2nc(C)cc(Nc3cccc(C(F)(F)F)c3)c2c1`, the inhibition at 25 µM rises from 4.46% to 39%.

First: O=c1nc(C=Cc2ccc(Cl)cc2)oc2ccccc12
Second: CN(C)c1ccc(C=Cc2nc(=O)c3ccccc3o2)cc1
The inhibition at 25 µM of the first is higher: 46.8% for the first, 11.9% for the second.

Going from `O=C(Nc1ccc(CN2CCOCC2)cc1)c1ccc(-c2ccc(Br)cc2)o1` to `CCCCCCC(O)(c1ccc(F)cc1)C(CN1CCOCC1)c1ccccc1` (configuration not stated), the inhibition at 25 µM falls from 26% to 3.84%.

Compared with `Cc1ccc(C(=O)c2oc3ccc4c(C)cc(=O)oc4c3c2C)cc1`, `CCC1(C)CC(CCNCc2ccccc2O)(c2ccc(C)cc2)CCO1` (configuration not stated) is higher in inhibition at 25 µM: 1.18% for the first, 14.5% for the second.

First: CCOc1cc(Cl)c(C(C)NC(=O)c2ccccc2)cc1OCC (configuration not stated)
Second: Oc1c2c(nc3cc(-c4ccccc4)nn13)CCCC2
The inhibition at 25 µM of the first is lower: 10.4% for the first, 19.8% for the second.

First: CCCc1cc(O)c2c3c(c(=O)oc2c1)CN(C)CC3
Second: Cc1cc(C=C2SC(=Nc3ccccc3)N(C3CCCC3)C2=O)c(C)n1-c1ccc(Cl)cc1
The inhibition at 25 µM of the first is higher: 16% for the first, 2.04% for the second.

`CN(C)c1ccc(C(O)(c2ccc(N(C)C)cc2)c2ccc(N(C)C)cc2)cc1` [METHYLROSANILINE] showed an inhibition at 25 µM of 28.6%.

The compounds below were run on Mycobacterium tuberculosis (assay: MMV: Screen against Mtb, single point, non replicating, at 25uM).
Assay type: functional

First: CCc1ccc(CNCC(O)c2ccccc2)cc1 (configuration not stated)
Second: CCOc1c(Cl)cc(CNCC(O)c2ccccc2)cc1OC (configuration not stated)
The inhibition at 25 µM of the first is lower: 4.33% for the first, 6.97% for the second.

Going from `O=C(Nc1ccc(C23CC4CC(CC(c5ccccc5)(C4)C2)C3)cc1)c1cccs1` to `Cc1sc(NC(=O)c2ccco2)c(C(c2cccnc2)N2CCC(Cc3ccccc3)CC2)c1C` (configuration not stated), the inhibition at 25 µM falls from -0.283% to -1.7%.

First: CN1c2ccccc2N(C)C1c1ccc2c(c1)OCO2
Second: CCOc1ccc2c(c1)CN(Cc1ccc(Cl)cc1)CO2
The inhibition at 25 µM of the first is lower: 14.5% for the first, 20.5% for the second.

First: N=c1n(CCN2CCCCC2)c2ccccc2n1CC(O)c1cccc(Br)c1 (configuration not stated)
Second: CCN(CC)CCn1c(=N)n(CC(O)c2ccc(Cl)c(Cl)c2)c2ccccc21 (configuration not stated)
The inhibition at 25 µM of the first is higher: 12.9% for the first, 10.1% for the second.

Going from `CCOC(=O)C1=C(c2ccccc2)N=c2sc(=Cc3cc(C)n(-c4ccc(F)cc4)c3C)c(=O)n2C1c1cccc(OC)c1OC` (configuration not stated) to `CCOC(=O)c1c(C)n(-c2ccccc2)c2ccc(OC(=O)c3cc(OC)c(OC)c(OC)c3)cc12`, the inhibition at 25 µM rises from 6.1% to 6.46%.

Going from `CCOc1cc2c(cc1OCC)C(c1cc(Cl)ccc1O)NCC2` (configuration not stated) to `CCOc1cc2c(cc1OCC)C(c1cc(C)c(O)c(C)c1)NCC2` (configuration not stated), the inhibition at 25 µM rises from -6.67% to 11.5%.

Going from `COc1ccc(C2Sc3ccccc3N=C3C2=C(O)c2ccccc23)cc1` (configuration not stated) to `COc1ccc2nc(C)cc(Nc3ccccc3O)c2c1`, the inhibition at 25 µM rises from -1.58% to 7.14%.

Compared with `CC1CC2=C(CC1CNCCCN(C)C)C(C)(C)CCC2` (configuration not stated), `CN(C)CCCNc1c2ccccc2nc2ccccc12` is higher in inhibition at 25 µM: -0.993% for the first, 17.8% for the second.

First: CCOc1cc(CNC(C)C(O)c2ccccc2)cc(Cl)c1OCC (configuration not stated)
Second: CCOc1c(Cl)cc(CNC(C)C(O)c2ccccc2)cc1OC (configuration not stated)
The inhibition at 25 µM of the first is lower: 9.76% for the first, 10.3% for the second.

First: COc1ccc(-c2nc(NC(=O)CS(=O)(=O)c3ccc(F)cc3)sc2C)cc1
Second: COc1ccc(-n2ccnc2SCC(=O)Nc2cc(C)ccc2C)c(OC)c1
The inhibition at 25 µM of the first is higher: 21.5% for the first, 8.89% for the second.

Going from `O=C(Nc1ccsc1C(=O)NC1CCCCC1)c1ccc(F)cc1` to `Cc1ccc(F)cc1NC(=O)c1cc(Cl)ccc1Nc1ccccc1`, the inhibition at 25 µM rises from 20.6% to 28.5%.

Compared with `CCc1ccc(Nc2cc(C)nc3nc(C)nn23)cc1`, `Cc1ccc(C)c(-c2csc(Nc3ccc(C)c(C)c3)n2)c1` is higher in inhibition at 25 µM: 9.06% for the first, 9.48% for the second.

Compared with `CCCOCc1cc(CN2CCN(c3cccc(Cl)c3)CC2)c(O)c2ncccc12`, `O=C(Nc1ccc(CN2CCOCC2)cc1)c1ccc(-c2cc(Cl)ccc2Cl)o1` is higher in inhibition at 25 µM: 1.85% for the first, 14.5% for the second.

First: COc1ccc2c(=O)cc(C(Cl)(Cl)Cl)oc2c1
Second: CCOc1cc(Cl)c(C(C)NC(=O)c2cccc(OC)c2)cc1OCC (configuration not stated)
The inhibition at 25 µM of the first is higher: 18.3% for the first, 9.94% for the second.

Going from `CCOC(=O)c1cnc2c(C)cc(C)cc2c1Nc1ccc(OC)c(OC)c1` to `Cc1ccc2nc(C)cc(Nc3cccc(C(F)(F)F)c3)c2c1`, the inhibition at 25 µM rises from 3.83% to 10.4%.

First: O=c1nc(C=Cc2ccc(Cl)cc2)oc2ccccc12
Second: CN(C)c1ccc(C=Cc2nc(=O)c3ccccc3o2)cc1
The inhibition at 25 µM of the first is lower: 7.84% for the first, 20.4% for the second.

First: O=C(Nc1ccc(CN2CCOCC2)cc1)c1ccc(-c2ccc(Br)cc2)o1
Second: CCCCCCC(O)(c1ccc(F)cc1)C(CN1CCOCC1)c1ccccc1 (configuration not stated)
The inhibition at 25 µM of the first is higher: 24.4% for the first, 19.8% for the second.

Compared with `Cc1ccc(C(=O)c2oc3ccc4c(C)cc(=O)oc4c3c2C)cc1`, `CCC1(C)CC(CCNCc2ccccc2O)(c2ccc(C)cc2)CCO1` (configuration not stated) is lower in inhibition at 25 µM: 5.4% for the first, 2.96% for the second.

First: CCOc1cc(Cl)c(C(C)NC(=O)c2ccccc2)cc1OCC (configuration not stated)
Second: Oc1c2c(nc3cc(-c4ccccc4)nn13)CCCC2
The inhibition at 25 µM of the first is lower: 2.61% for the first, 10.3% for the second.

First: CCCc1cc(O)c2c3c(c(=O)oc2c1)CN(C)CC3
Second: Cc1cc(C=C2SC(=Nc3ccccc3)N(C3CCCC3)C2=O)c(C)n1-c1ccc(Cl)cc1
The inhibition at 25 µM of the first is higher: 14.1% for the first, -1.41% for the second.

Compound `CN(C)c1ccc(C(O)(c2ccc(N(C)C)cc2)c2ccc(N(C)C)cc2)cc1` [METHYLROSANILINE] has an inhibition at 25 µM of 59.8%.
